Measurements as given in patent US20250206754A1, “PAN-CHEMOKINE ANTAGONISTS FOR USE IN TREATING CANCER AND IMMUNE DISORDERS” ("Micar Innovation" LTD., priority 2022, published 2025).
Several values for one entry are separate records, joined by “and”; a condition that tells them apart may be missing. Equal values may be shown once. Read-outs that look alike come from different tables or passages of the source.

How the values were obtained:
CCR3 = biological target: T1, CCR3 (Homo sapiens, UniProt P51677); test: β-arrestin selectivity assay, CCR3; assay type: cell-based
T1 sequence (P51677 1-355): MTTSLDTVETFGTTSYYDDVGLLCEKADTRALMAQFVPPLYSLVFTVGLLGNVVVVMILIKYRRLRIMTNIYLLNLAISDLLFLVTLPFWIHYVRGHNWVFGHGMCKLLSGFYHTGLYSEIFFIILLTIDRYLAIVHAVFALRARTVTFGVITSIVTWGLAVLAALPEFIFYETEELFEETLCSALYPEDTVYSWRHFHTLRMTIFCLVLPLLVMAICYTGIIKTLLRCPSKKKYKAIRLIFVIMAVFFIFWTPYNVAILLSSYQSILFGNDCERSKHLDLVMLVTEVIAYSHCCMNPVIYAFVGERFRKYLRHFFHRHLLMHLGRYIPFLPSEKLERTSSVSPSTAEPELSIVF

CCR7 [1] = biological target: T2, CCR7 (Homo sapiens, UniProt P32248); test: Ca^2+ mobilization assay, CCR7; assay type: cell-based; details: Ca^2+ mobilization assay, CCR7
T2 construct: expressed in transfected cells
T2 sequence (P32248 25-378): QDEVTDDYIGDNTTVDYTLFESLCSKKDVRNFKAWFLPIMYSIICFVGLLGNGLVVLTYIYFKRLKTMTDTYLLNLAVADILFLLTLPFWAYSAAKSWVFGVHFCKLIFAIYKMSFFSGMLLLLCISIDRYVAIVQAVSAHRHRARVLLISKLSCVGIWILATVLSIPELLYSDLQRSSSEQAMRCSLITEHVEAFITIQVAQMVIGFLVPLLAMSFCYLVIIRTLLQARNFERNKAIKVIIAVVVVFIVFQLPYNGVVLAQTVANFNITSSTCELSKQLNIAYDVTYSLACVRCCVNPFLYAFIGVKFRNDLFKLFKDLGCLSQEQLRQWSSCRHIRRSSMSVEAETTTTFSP
Protocol: Selected compounds were initially sent for both antagonist and agonist TANGO β-arrestin assays. […] Replacement only on the amide group with CN led to strong activity decrease in β-arrestin assay: only 31% activity at about 30 μM and similar one at 100 μM (Table 1). Five more derivatives with replaced amide group were also tested in parallel by Ca^2+ mobilization assay and they all were not active up to the tested concertation of 100 μM.
To examine the colloid aggregation possibility a β-lactamase enzymatic activity counterscreen assay was performed, which is the commonly adopted tool for detection of such properties of the compounds.

CCR2 = CCR2 (Homo sapiens, UniProt P41597); test: β-arrestin selectivity assay, CCR2; assay type: cell-based
CCR2, sequence (P41597 whole entry): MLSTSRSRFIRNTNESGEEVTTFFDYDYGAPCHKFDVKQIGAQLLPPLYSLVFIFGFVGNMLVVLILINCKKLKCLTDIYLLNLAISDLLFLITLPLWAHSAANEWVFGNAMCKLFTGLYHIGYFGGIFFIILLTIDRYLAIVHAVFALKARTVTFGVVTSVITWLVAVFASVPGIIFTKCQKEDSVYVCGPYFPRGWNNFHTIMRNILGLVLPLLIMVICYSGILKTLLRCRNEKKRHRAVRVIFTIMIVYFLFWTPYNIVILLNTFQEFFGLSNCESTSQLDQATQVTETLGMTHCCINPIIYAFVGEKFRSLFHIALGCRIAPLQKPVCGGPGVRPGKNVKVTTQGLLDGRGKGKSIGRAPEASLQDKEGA

CCR5 = CCR5 (Homo sapiens, UniProt P51681); test: β-arrestin selectivity assay, CCR5; assay type: cell-based
CCR5, sequence (P51681 whole entry): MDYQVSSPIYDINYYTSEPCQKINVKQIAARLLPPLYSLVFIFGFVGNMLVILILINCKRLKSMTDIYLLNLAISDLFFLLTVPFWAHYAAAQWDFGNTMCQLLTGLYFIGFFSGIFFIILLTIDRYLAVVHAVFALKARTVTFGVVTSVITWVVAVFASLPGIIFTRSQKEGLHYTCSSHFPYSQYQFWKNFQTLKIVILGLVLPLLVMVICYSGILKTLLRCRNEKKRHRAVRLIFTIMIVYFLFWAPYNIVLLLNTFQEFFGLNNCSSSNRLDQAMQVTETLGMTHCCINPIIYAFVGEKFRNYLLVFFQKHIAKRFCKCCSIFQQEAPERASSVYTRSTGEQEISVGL

CXCR4 = CXCR4 (Homo sapiens, UniProt P61073); test: Ca^2+ mobilization assay, CXCR4; assay type: cell-based
CXCR4, sequence (P61073 whole entry): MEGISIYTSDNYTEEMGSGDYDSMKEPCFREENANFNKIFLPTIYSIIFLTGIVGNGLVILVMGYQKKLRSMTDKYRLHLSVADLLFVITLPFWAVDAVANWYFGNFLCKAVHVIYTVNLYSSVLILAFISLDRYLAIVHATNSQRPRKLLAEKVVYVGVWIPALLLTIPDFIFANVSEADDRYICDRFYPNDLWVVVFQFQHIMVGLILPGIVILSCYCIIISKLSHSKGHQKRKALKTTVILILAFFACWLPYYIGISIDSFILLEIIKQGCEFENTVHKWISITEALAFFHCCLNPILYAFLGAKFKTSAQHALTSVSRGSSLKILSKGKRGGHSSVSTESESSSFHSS
Protocol: MIC5023. The synthesis path of MIC5023 is shown on Scheme 1. It consists of 5 chemical transformation in order the final product to be obtained. Two chlorine atoms were added to aromatic rings of MIC5022, and also one methyl group, which makes MIC5023 a close derivative of MIC5022. […] The Ca^2+ mobilization assays retrieved a value of IC50 of about 30 μM and similar for CXCR4; i.e. less than those observed for Hit 1 (MIC5022). MIC5024. The synthesis path of MIC5024 is shown on Scheme 2. It consists of 4 chemical transformation in order the final product to be obtained. The difference between MIC5023 and MIC5024 is only one methyl group introduced in the central five member aromatic ring but it decreased the β-arrestin activity of MIC5024 to CCR1, CCR2 and CCR3 below 30 μM. […] The Ca^2+ mobilization assays retrieved values of IC50>50 μM for CCR7 and CXCR4. Thus, it became evident that this methyl substitution is less sensitive only to CCR3 and CCR5.

CCR1 = biological target: T3, CCR1 (Homo sapiens, UniProt P32246); test: β-arrestin selectivity assay, CCR1; assay type: cell-based
T3 sequence (P32246 1-355): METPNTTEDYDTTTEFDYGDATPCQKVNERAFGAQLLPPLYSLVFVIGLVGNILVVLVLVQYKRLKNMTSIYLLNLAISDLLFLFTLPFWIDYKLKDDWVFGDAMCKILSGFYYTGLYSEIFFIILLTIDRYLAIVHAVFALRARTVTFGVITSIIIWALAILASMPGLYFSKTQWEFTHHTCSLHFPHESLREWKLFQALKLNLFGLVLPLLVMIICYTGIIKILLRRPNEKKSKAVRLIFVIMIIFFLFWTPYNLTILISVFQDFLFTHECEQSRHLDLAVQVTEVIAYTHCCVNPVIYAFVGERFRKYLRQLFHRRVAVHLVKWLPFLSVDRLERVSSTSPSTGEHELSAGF

CCR7 [2] = biological target: T2, CCR7; details: β-arrestin related assay, CCR7, reference [2]; cited from earlier work

| IC50 (CCR3) | IC50 (CCR7 [1]) [µM] | IC50 (CCR2) [µM] | IC50 (CCR5) [µM] | IC50 (CXCR4) [µM] | IC50 (CCR1) [µM] | Molecule | IC50 (CCR7 [2]) [µM] |
| --- | --- | --- | --- | --- | --- | --- | --- |
| > 9.5 µM | ~30 | 31.5 | 2.1 | ~30 | > 30 | Cc1nc(Oc2c(Cl)cccc2C(N)=O)c2c(C)c(-c3ccccc3Cl)sc2n1 [MIC5023, 3-chloro-2-{[6-(2-chlorophenyl)-2,5-dimethylthieno[2,3-d]pyrimidin-4-yl]oxy}benzamide] |  |
| < 30 µM and 7.2 µM | > 50 | < 30 | 7.2 | > 50 | < 30 | Cc1nc(Oc2c(Cl)cccc2C(N)=O)c2cc(-c3ccccc3Cl)sc2n1 [MIC5024, 3-chloro-2-{[6-(2-chlorophenyl)-2-methylthieno[2,3-d]pyrimidin-4-yl]oxy}benzamide] |  |
|  |  |  |  |  |  | Cosaline | 0.2 |
